Values quoted from earlier work, collected in patent US8882743B2, “Apparatus and method for application of a pharmaceutical to the tympanic membrane for photodynamic laser myringotomy” (priority 2006, dated 2014).

System: tympanic membrane
Conditions: lance myringotomy with concomitant mitomycin-C versus myringotomy without mitomycin-C

## CO[C@@]12[C@H](COC(N)=O)C3=C(C(=O)C(C)=C(N)C3=O)N1C[C@@H]1N[C@@H]12 [mitomycin-C]
  time required for closure of the fistulae formed: statistically significant increase
